Source: patent US9682976B2, “Protein kinase C inhibitors and uses thereof” (Rigel Pharmaceuticals, Inc., priority 2012, dated 2017)

Tested on: PKC mediated IL-2 production
Experiment: IL-2 ELISA, human primary T cell, anti CD3+CD28+
Type: cell-based
Conditions: Homo sapiens, T-cell, 24 h, human primary T cells stimulated with αCD3 and αCD28, 24 hours
How it was run: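 Human peripheral blood T cells, pre-expanded with αCD3/αCD28 and IL-2 and then washed free of IL-2, were pre-incubated with compound for 1 h at 37° C. They were then stimulated on plates coated with […] αCD3 and 5 μg/ml αCD28, or with 0.5 ng/ml PMA plus 0.1 uM ionomycin in the counter assay. IL-2 in supernatants was measured by ELISA after 24 h.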

Structure (SMILES) | EC50 [µM]
CCN(CC)CCOc1cc(F)c(Nc2ncc(F)c(N[C@@H]3C[C@@H]4CCCN4C(C)(C)C3)n2)cc1-n1nnn(C)c1=O [Compound 194, 1-(2-(2-(diethylamino)ethoxy)-5-((4-(((7R,8aS)-5,5-dimethyloctahydroindolizin-7-yl)amino)-5-fluoropyrimidin-2-yl)amino)-4-fluorophenyl)-4-methyl-1,4-dihydro-5H-tetrazol-5-one] | 0.1 to 0.5
CC1(C)C[C@H](Nc2nc(Nc3ccc(F)c(-n4nnnc4C4CC4)c3)ncc2Cl)C[C@@H]2CCCN21 [Compound 163, 5-chloro-N2-(3-(5-cyclopropyl-1H-tetrazol-1-yl)-4-fluorophenyl)-N4-((7R,8aS)-5,5-dimethyloctahydroindolizin-7-yl)pyrimidine-2,4-diamine] | < 0.1
CC1(C)C[C@H](Nc2nc(Nc3ccc(O[C@@H]4CCN(C5COC5)C[C@H]4F)c(C(F)(F)F)c3)ncc2F)C[C@@H]2CCCN21 [Compound 122] | 0.1 to 0.5
[2H]C1(Oc2ccc(Nc3ncc(F)c(N[C@H]4CCN5[C@@H](CCC5(C)C)C4)n3)cc2-n2nnn(C)c2=O)CC(O)C1 (stereo partly drawn) [Compound 309, 1-(5-((4-(((7S,8aS)-3,3-Dimethyloctahydroindolizin-7-yl)amino)-5-fluoropyrimidin-2-yl)amino)-2-(3-hydroxycyclobutoxy-1-d)phenyl)-4-methyl-1,4-dihydro-5H-tetrazol-5-one] | 0.1 to 0.5
Cn1nnn(-c2cc(Nc3ncc(Cl)c(N[C@@H]4C[C@@H]5CCCN5C(C)(C)C4)n3)c(F)cc2O)c1=O [Compound 232, 1-(5-((5-chloro-4-(((7R,8aS)-5,5-dimethyloctahydroindolizin-7-yl)amino)pyrimidin-2-yl)amino)-4-fluoro-2-hydroxyphenyl)-4-methyl-1,4-dihydro-5H-tetrazol-5-one] | 0.5 to 1
Cn1nnn(-c2cc(Nc3ncc(Cl)c(N[C@@H]4C[C@@H]5CCCN5C(C)(C)C4)n3)c(F)cc2OCC(C)(C)O)c1=O [Compound 240, 1-(5-((5-chloro-4-(((7R,8aS)-5,5-dimethyloctahydroindolizin-7-yl)amino)pyrimidin-2-yl)amino)-4-fluoro-2-(2-hydroxy-2-methylpropoxy)phenyl)-4-methyl-1,4-dihydro-5H-tetrazol-5-one] | < 0.1
CC1(C)C[C@H](Nc2nc(Nc3ccc(N4CCN(S(C)(=O)=O)CC4)c(C#N)c3)ncc2F)C[C@@H]2CCCN21 [Compound 103, 5-((4-(((7R,8aS)-5,5-Dimethyloctahydroindolizin-7-yl)amino)-5-fluoropyrimidin-2-yl)amino)-2-(4-(methylsulfonyl)piperazin-1-yl)benzonitrile] | 0.1 to 0.5
CC1(C)C[C@H](Nc2nc(Nc3ccc(NCC(CCl)C(N)=O)c(C(F)(F)F)c3)ncc2F)C[C@@H]2CCCN21 (stereo partly drawn) [Compound 325, 1-(4-(4-((7R,8aS)-octahydro-5,5-dimethylindolizin-7-ylamino)-5-fluoropyrimidin-2-ylamino)-24(2-trifluoromethylphenylamino)methyl)-3-chloropropanamide] | 0.5 to 1

The remaining lines, values ahead:

EC50 [µM] | Structure (SMILES)
0.1 to 0.5 | CC1(C)CC(Nc2nc(Nc3ccc(OC4CCOCC4)c(C#N)c3)ncc2F)CC2CCCN21 (centres unmarked) [Compound 41, 5-(5-fluoro-4-(octahydro-5,5-dimethylindolizin-7-ylamino)pyrimidin-2-ylamino)-2-(tetrahydro-2H-pyran-4-yloxy)benzonitrile]
1 to 10 | Cn1nc2n(c1=O)-c1cc(Nc3ncc(F)c(N[C@@H]4C[C@@H]5CCCN5C(C)(C)C4)n3)ccc1OC2(CO)CO [Compound 288, 5-fluoro-N2-(1H-2,4-dihydron-4,4-di(hydroxymethyl)-2-methyl-[1,2,4]triazolo[3,4-c][1,4]benzoxazin-1-one-8-yl)-N4-((7R,8aS)-octahydro-5,5-dimethylindolizin-7-yl)pyrimidine-2,4-diamine]
> 10 | Cn1nnn(-c2cc(Nc3ncc(F)c(N[C@@H]4C[C@@H]5CCCN5C(C)(C)C4)n3)c(F)cc2OCC(=O)C(=O)O)c1=O [Compound 171, 3-(4-((4-(((7R,8aS)-5,5-dimethyloctahydroindolizin-7-yl)amino)-5-fluoropyrimidin-2-yl)amino)-5-fluoro-2-(4-methyl-5-oxo-4,5-dihydro-1H-tetrazol-1-yl)phenoxy)-2-oxopropanoic acid]
0.1 to 0.5 | CC1(C)C[C@H](Nc2nc(Nc3cc(C#N)c(C4CC4)cc3F)ncc2Cl)C[C@@H]2CCCN21 [Compound 181, 5-((5-chloro-4-(((7R,8aS)-5,5-dimethyloctahydroindolizin-7-yl)amino)pyrimidin-2-yl)amino)-2-cyclopropyl-4-fluorobenzonitrile]
0.5 to 1 | CC1(C)CC[C@H]2C[C@@H](Nc3nc(Nc4ccc(N5CC(O)C5)c(OC(F)F)c4)ncc3F)CCN21 [Compound 308, 1-(2-(Difluoromethoxy)-4-((4-(((7S,8aS)-3,3-dimethyloctahydroindolizin-7-yl)amino)-5-fluoropyrimidin-2-yl)amino)phenyl)azetidin-3-ol]
0.5 to 1 | CC1(C)C[C@H](Nc2nc(Nc3ccc(OCC4COC4)c(C#N)c3)ncc2F)C[C@@H]2CCCN21 [Compound 175, 5-(4-((7R,8aS)-5,5-dimethyloctahydroindolizin-7-ylamino)-5-fluoropyrimidin-2-ylamino)-2-(oxetan-3-ylmethoxy)benzonitrile]
0.1 to 0.5 | Cn1nnn(-c2cc(Nc3ncc(F)c(N[C@@H]4C[C@@H]5CCCN5C(C)(C)C4)n3)c(F)cc2OCC2COC2)c1=O [Compound 166, 1-(5-((4-(((7R,8aS)-5,5-dimethyloctahydroindolizin-7-yl)amino)-5-fluoropyrimidin-2-yl)amino)-4-fluoro-2-(oxetan-3-ylmethoxy)phenyl)-4-methyl-1,4-dihydro-5H-tetrazol-5-one]
0.1 to 0.5 | Cn1nc2n(c1=O)-c1cc(Nc3ncc(F)c(N[C@@H]4C[C@@H]5CCCN5C(C)(C)C4)n3)ccc1OC21COC1 [Compound 293, 5-fluoro-N2-(1H-2,4-dihydron-spiro(2H-1,4-benzoxazine-4,3′-[3H]oxetan)-2-methyl-[1,2,4]triazolo[3,4-c][1,4]benzoxazin-1-one-8-yl)-N4-((7R,8aS)-octahydro-5,5-dimethylindolizin-7-yl)pyrimidine-2,4-diamine]
0.1 to 0.5 | CC1(C)CC[C@H]2C[C@@H](Nc3nc(Nc4ccc(OCCCO)c(OC(F)F)c4)ncc3F)CCN21 [Compound 307, 3-(2-(Difluoromethoxy)-4-((4-(((7S,8aS)-3,3-dimethyloctahydroindolizin-7-yl)amino)-5-fluoropyrimidin-2-yl)amino)phenoxy)propan-1-ol]
< 0.1 | COCCOCCOc1ccc(Nc2ncc(F)c(N[C@@H]3C[C@@H]4CCCN4C(C)(C)C3)n2)cc1-n1cnnn1 [Compound 207, N4-((7R,8aS)-5,5-dimethyloctahydroindolizin-7-yl)-5-fluoro-N2-(4-(2-(2-methoxyethoxy)ethoxy)-3-(1H-tetrazol-1-yl)phenyl)pyrimidine-2,4-diamine]

Same assay, conditions: T-cell, human primary T cells stimulated with αCD3 and αCD28, 24 hours

Structure (SMILES) | EC50 [µM]
CC(O)COc1cc(F)c(Nc2ncc(F)c(N[C@@H]3C[C@@H]4CCCN4C(C)(C)C3)n2)cc1-n1nnn(C)c1=O (stereo partly drawn) [Compound 200, 1-(5-((4-(((7R,8aS)-5,5-dimethyloctahydroindolizin-7-yl)amino)-5-fluoropyrimidin-2-yl)amino)-4-fluoro-2-(2-hydroxypropoxy)phenyl)-4-methyl-1,4-dihydro-5H-tetrazol-5-one] | < 0.1

Same assay, conditions: human primary T cells stimulated with αCD3 and αCD28, 24 hours

EC50 [µM] | Structure (SMILES)
< 0.1 | CC1(O)COc2ccc(Nc3ncc(F)c(N[C@@H]4C[C@@H]5CCCN5C(C)(C)C4)n3)cc2-n2nnnc21 (some centres unmarked) [Compound 127]
